Measurements reported in EP0390515A1, “Novel adenine derivatives and their use as agents for increasing crop yields” (MITSUBISHI GAS CHEMICAL COMPANY, INC., priority 1989, dated 1990).

Tested on: Rice seeds (var.: Nankin No. 11) leaf section
Assay: Assay of cytokinin activity by measurement of chlorophyll content (senescence retardation of rice leaf sections)
Assay type: cell-based, Rice (var.: Nankin No. 11)
Conditions: dark, 30°C, 3 days
Experimental: Rice seeds (var.: Nankin No. 11) were sown in soil mixed with fertilizer in a seed box and raised for about one month in a greenhouse (25°C in the daytime and 15°C in the night).
A leaf section 1 cm long was cut off from the center of the fourth leaf of the seedlings at the sixth leaf stage. Five leaf sections as one group which had been cut off were floated on the surface of an aqueous solution (2 ml) of the candidate compound or benzyl adenine at a given concentration contained in a glass tubular bottle of 32 mm in inner diameter. This was left to stand in the dark at 30°C for 3 days. The leaf sections were taken out and put in a test tube containing 10 ml of 80% ethanol and the glass tube was immersed in a water bath of 80°C for 20 minutes to extract chlorophyll. After cooling, 80% ethanol was added to make up to 10 ml and absorbance at 665 nm was measured. For the untreated group, water was used in place of the candidate solution in all examples.
Senescence retardation was determined according to the degree of chlorophyll retention, that is, calculated using the following formula (in all examples). [formula] • (A) : Absorbance of treated group after 3 days • (B) : Absorbance of untreated group after 3 days • (C) : Absorbance of leaves before treatment.

c1ccc(CNc2ncnc3nc[nH]c23)cc1 [Benzyladenine, 6-benzylaminopurine, reference compound]
The senescence retardation (%) (0.001 mg/l): 17%
The senescence retardation (%) (0.01 mg/l): 64%
The senescence retardation (%) (0.1 mg/l): 93%
The senescence retardation (%) (1.0 mg/l): 93%

CON(C)CCNc1ncnc2nc[nH]c12 [MAED, N⁶-[2-(N-methoxy-N-methylamino)ethyl]adenine]
The senescence retardation (%) (0.001 mg/l): 14%
The senescence retardation (%) (0.01 mg/l): 60%
The senescence retardation (%) (0.1 mg/l): 100%
The senescence retardation (%) (1.0 mg/l): 95%
